Calls of active or inactive are those of the source. The rule behind the calls is not given here.

By logD is commonly meant the decadic logarithm of the distribution of all forms, ionised or not, between an organic phase and buffer at a given pH. A high value points to a more lipophilic compound. As a reminder, the EC50 is the concentration at which the effect is half-maximal. As usually defined, the Emax is the maximal effect, on the per cent scale that the assay sets. The IC50 is the concentration at which inhibition is half-maximal. Low readings indicate inhibition by little substance, high ones a need for much substance.

Data set [1] has as its target T1, Potassium channel subfamily K member 18 (Homo sapiens) (UniProt Q7Z418).
T1 sequence (whole entry): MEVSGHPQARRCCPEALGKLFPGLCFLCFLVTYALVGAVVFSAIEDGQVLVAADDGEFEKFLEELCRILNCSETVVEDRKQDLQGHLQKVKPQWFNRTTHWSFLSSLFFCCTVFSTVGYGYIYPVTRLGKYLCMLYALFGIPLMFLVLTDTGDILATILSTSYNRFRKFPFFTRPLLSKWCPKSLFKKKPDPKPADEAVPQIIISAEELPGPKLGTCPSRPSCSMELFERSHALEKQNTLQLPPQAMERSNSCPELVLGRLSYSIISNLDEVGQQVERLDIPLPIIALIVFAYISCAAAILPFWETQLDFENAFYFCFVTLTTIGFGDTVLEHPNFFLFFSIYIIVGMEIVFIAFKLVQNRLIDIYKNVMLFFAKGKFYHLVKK
In words: Activation of human TRESK channel expressed in HEK293 cells assessed as induction of channel current at 100 uM by whole cell patch clamp assay relative to control. The format is cell-based. (The patch-clamp technique gives a direct electrical read-out from membranes.)

The target in data set [2] is T2, Potassium channel subfamily K member 18 (Homo sapiens, UniProt Q7Z418).
T2 sequence (Q7Z418 whole entry): T1 sequence (whole entry)
As to the kind of experiment: Channel blocking activity at human TRESK channel expressed in HEK293 cells at 100 uM by whole cell patch clamp assay. To be noted: hek293, 100 µM. The format is cell-based.

Data set [3] in a line: Lipophilicity, log D of the compound. To be noted: octanol/water. The format is physicochemical.
Data set [4] addresses T2, Potassium channel subfamily K member 18. In words: (§1) Activation of human TRESK channel expressed in HEK293 cells assessed as induction of channel current by whole cell patch clamp assay. The format is cell-based.
Data set [5] has as its target T1, Potassium channel subfamily K member 18 (Homo sapiens). Described as §1. The format is cell-based.
Data set [6] concerns the target T2, Potassium channel subfamily K member 18. In words: Channel blocking activity at human TRESK channel.
Data set [7] shares this target. In words: (§2) Activation of human TRESK channel relative to control.
In data set [8] the target is T1, Potassium channel subfamily K member 18 (Homo sapiens). The data set is described as §2.

Turning to `CCCCc1cccc(Nc2ccccc2C(=O)O)c1`, in data set [1], the outcome was Active.
Regarding `O=C(O)c1ccccc1Nc1cccc2c1CCCC2`, the outcome in data set [2] was Active.
As to `CC(C)(C)c1cccc(Nc2ccccc2C(=O)O)c1`, the logD in data set [3] amounted to 3.2. Further, the EC50 in data set [4] was 45 µM. The Emax in data set [5] is 354%.
Turning to `N#Cc1ccccc1Nc1cccc(C(F)(F)F)c1`, the result in data set [2] was Active.
The same measure, in the same setting: under `O=C(O)c1ccccc1Nc1cccc(Oc2ccccc2)c1` stands “Active”.
In data set [6], `CCN(CC)CC(=O)Nc1c(C)cccc1C` [LIDOCAINE] yielded a half-maximal inhibitory concentration (IC50) above 100 µM.
In data set [3], `O=C(O)c1ccccc1Nc1cccc(C(F)(F)F)c1` [FLUFENAMIC ACID] showed a pH-dependent lipophilicity (logD) of 2.2. Moreover, the EC50 in data set [7] is above 100 µM; in data set [4] it was 474 µM.
With `O=C(O)c1ccccc1Nc1cccc(-c2ccccc2)c1`, the result in data set [2] was Active.
The same measure, in the same setting: under `Cc1cc(C)c(Nc2ccccc2C(=O)O)c(C)c1` stands “Active”.
`CC(C)(C)c1cccc(Nc2ccccc2-c2nnn[nH]2)c1`: in data set [3], the logD was 2.7. In addition, in data set [4], the EC50 came out at 18.8 µM. In addition, in data set [5], the maximum response (Emax) was found to be 102%.
`NC(=O)c1ccccc1Nc1cccc(C(F)(F)F)c1`: in data set [2], the result was Active.
For the compound `FC(F)(F)c1cccc(Nc2ccccc2-c2nnn[nH]2)c1`, in data set [2], the result was Active.
`c1ccc(-c2nnn[nH]2)c(Nc2cccc3c2CCCC3)c1` yielded an EC50 in data set [7] of 6 µM. Further, the Emax in data set [8] was determined as 75%.
